For one assay, the target named is T1, PTH1R (WT) (Homo sapiens, UniProt Q03431).
T1 construct: a flag-tag was fused to the N terminal of full-length PTH1R (WT or mutant); expressed in transfected cells; host or cells: HEK293T
T1 sequence (Q03431 27-593): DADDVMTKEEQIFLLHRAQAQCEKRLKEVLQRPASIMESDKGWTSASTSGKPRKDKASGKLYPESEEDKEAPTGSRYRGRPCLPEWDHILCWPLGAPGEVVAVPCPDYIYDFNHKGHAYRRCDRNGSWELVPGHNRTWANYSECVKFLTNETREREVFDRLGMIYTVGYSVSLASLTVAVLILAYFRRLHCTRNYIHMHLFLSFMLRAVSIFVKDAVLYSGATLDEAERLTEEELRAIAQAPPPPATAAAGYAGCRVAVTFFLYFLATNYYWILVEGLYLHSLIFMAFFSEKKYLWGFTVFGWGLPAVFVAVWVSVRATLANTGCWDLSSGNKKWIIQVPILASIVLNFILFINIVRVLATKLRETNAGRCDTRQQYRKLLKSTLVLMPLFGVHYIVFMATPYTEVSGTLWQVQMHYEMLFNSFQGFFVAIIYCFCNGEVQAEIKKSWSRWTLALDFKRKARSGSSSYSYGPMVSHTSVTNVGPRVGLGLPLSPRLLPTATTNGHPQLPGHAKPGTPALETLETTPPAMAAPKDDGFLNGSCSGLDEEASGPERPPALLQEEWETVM
In words: Wash out assay, duration of cAMP signaling. The format is cell-based. The following applies: ligand 10^-6 M, 10 min ligand-on phase, 70 min wash-out phase, HEK293T, GloSensor. The protocol: Human embryonic kidney 293 T (HEK293T) cells were transfected with a plasmid mixture consisting of pcDNA3.1-flag-PTH1R (WT) and the cAMP biosensor GloSensor-22F (Promega) at a ratio of 2:1. After 24 h, transfected cells were plated onto a 96-well plate, which was treated with cell adherent reagent (Applygen) in advance. After another 12 h, cells were treated with Hank’s balanced salt solution for starvation and then incubated in CO2-independent media containing 4% GloSensor cAMP Reagent (Promega) at a volume of 40 μl per well and incubated for 20 min at RT before measurements for baseline luminescence (Spark Multimode microplate reader, TECAN). Next, test ligands (10 μl) were added at 10^−6 M that approximated the respective Emax (efficacy) value obtained for that “ligand- on” phase were similar for the different ligands. Then the development of cAMP-dependent luminescence was measured for 10 min (“ligand-on” phase); the plates were then removed from the plate reader, the cells were rinsed twice to remove unbound ligand, treated with fresh media containing luciferin, and luminescence was again recorded for an additional 70 min (“wash-out” phase)[18]. Finally, data were analyzed using GraphPad Prism.

Another assay concerns the target T2, PTH1R L436A mutant (Homo sapiens, UniProt Q03431, L436A).
T2 construct: a flag-tag was fused to the N terminal of full-length PTH1R (WT or mutant); expressed in transfected cells; host or cells: HEK293T
T2 sequence (Q03431 27-593 L436A): T1 sequence (Q03431 27-593) with L410A
Description: cAMP accumulation assay (GloSensor), PTH1R L436A. The following applies: for ΔpEC50±SEM: relative to WT, n = 3 in triplicate; for ΔpEC50±SEM / Span±SEM: mean ± SEM; for Span±SEM: window between maximal response (Emax) and vehicle, n = 3. Type of assay: cell-based. The protocol:
Human embryonic kidney 293 T (HEK293T, ATCC: CRL-1573) cells were transfected with a plasmid mixture consisting of pcDNA3.1-flag-PTH1R (WT or mutants) and the cAMP biosensor GloSensor-22F (Promega) at a ratio of 2:1 (see Supplementary Table 7 for a list of primers used in this study). After 24 h, transfected cells were plated onto a 384-well plate, which was treated with cell adherent reagent (Applygen) in advance. After another 12 h, cells were treated with Hank’s balanced salt solution for starvation and then incubated in CO2-independent media containing 4% GloSensor cAMP Reagent (Promega) at a volume of 5 μl per well and incubated for 20 min at RT before measurements for baseline luminescence (Spark Multimode microplate reader, TECAN). Next, test ligands were added at different concentrations from 10^−6 to 10^−13 M before second measurement. Finally, data were normalized to 100% of the maximal PTH (1-34) response for WT PTH1R using a sigmoidal dose-response in GraphPad Prism.
Statistical analyses were performed on at least three individual datasets and analysed using GraphPad Prism software. Bars represent differences in the calculated agonist potency (pEC50) and maximum agonist response (Emax) for each mutant relative to the WT receptor. Data are mean± s.e.m. from at least three independent experiments, performed in triplicates. ns, not significant, ^nsP > 0.01; ^*P < 0.01; ^**P < 0.001; ^***P < 0.0001 (one-way analysis of variance (ANOVA) followed by Dunnett’s test, compared with the response of the WT). For dose-response experiments, data were normalized and analyzed using nonlinear curve fitting for the log (agonist) versus response (three parameters) curves.
A general note: cAMP levels reflect the balance of adenylyl cyclase and phosphodiesterase activity.

From publication PMC9586930, “Molecular insights into the distinct signaling duration for the peptide-induced PTH1R activation” (Nature Communications, 2022) come the findings set out here.

Numbering of substitutions follows the chain as printed.

With “H-AVAEIQLMHQRAKWIQDARRRAFLHKLIAEIHTAEI-OH [LA-PTH, long-acting PTH analog, modified PTH/PTHrP hybrid]”, at PTH1R (WT), the “duration of cAMP signaling after wash-out” value (“duration of cAMP signaling” below) is “stronger activity of sustained signaling when compared with the PTH”. The “span (from the WT)” value at PTH1R L436A mutant (PTH1R L4367.34A, replicate 1) was determined as 237.8; at PTH1R L436A mutant (PTH1R L4367.34A, replicate 2) it was 171.3; on PTH1R L436A mutant (PTH1R L4367.34A, replicate 3), 194.5. For the same substance, the “ΔpEC50 (from the WT)” value is 0.088 on PTH1R L436A mutant (PTH1R L4367.34A, replicate 1); -0.137 at PTH1R L436A mutant (PTH1R L4367.34A, replicate 2); 0.085 on PTH1R L436A mutant (PTH1R L4367.34A, replicate 3); 0.088 at PTH1R L436A mutant (replicate 1); -0.137 on PTH1R L436A mutant (replicate 2); 0.085 on PTH1R L436A mutant (replicate 3). At PTH1R L436A mutant, the “ΔpEC50±SEM” value is 0.01±0.07. For the same substance, the “Span±SEM” value at PTH1R L436A mutant is reported as 201.20±19.49.
For “H-AVSEHQLLHDKGKSIQDLRRRELLEKLL-{Aib}-KLHTA-NH2 [ABL, Abaloparatide, an analog of PTHrP, short-acting PTH1R agonist]”, the “duration of cAMP signaling” value on PTH1R (WT) is recorded as “obvious transient cAMP signaling”. Further, the “span (from the WT)” value came out at 166.5 at PTH1R L436A mutant (PTH1R L4367.34A, replicate 1); 265 at PTH1R L436A mutant (PTH1R L4367.34A, replicate 2); 245.1 at PTH1R L436A mutant (PTH1R L4367.34A, replicate 3). Further, the “ΔpEC50 (from the WT)” value on PTH1R L436A mutant (PTH1R L4367.34A, replicate 1) is -0.45; at PTH1R L436A mutant (PTH1R L4367.34A, replicate 2), -0.73; on PTH1R L436A mutant (PTH1R L4367.34A, replicate 3) it was -0.7; at PTH1R L436A mutant (replicate 1), -0.45; on PTH1R L436A mutant (replicate 2), -0.73; on PTH1R L436A mutant (replicate 3), -0.7. In addition, at PTH1R L436A mutant, the “ΔpEC50±SEM” value is -0.63±0.09. For the same substance, the “Span±SEM” value on PTH1R L436A mutant is 225.53±30.07.
In the case of “H-SVSEIQLMHNLGKHLNSMERVEWLRKKLQDVHNF-OH [PTH, Teriparatide, human PTH 1-34, long-acting peptide agonist of PTH1R]”, at PTH1R (WT), the “duration of cAMP signaling” value is recorded as “potent prolonged cAMP signaling”. In addition, the “span (from the WT)” value at PTH1R L436A mutant (PTH1R L4367.34A, replicate 1) is 270.9; on PTH1R L436A mutant (PTH1R L4367.34A, replicate 2), 204.3; on PTH1R L436A mutant (PTH1R L4367.34A, replicate 3) it was 186.9. For the same substance, the “ΔpEC50 (from the WT)” value at PTH1R L436A mutant (PTH1R L4367.34A, replicate 1) is reported as 0.137; at PTH1R L436A mutant (PTH1R L4367.34A, replicate 2) it was 0.015; at PTH1R L436A mutant (PTH1R L4367.34A, replicate 3), 0.016; at PTH1R L436A mutant (replicate 1) it was 0.137; at PTH1R L436A mutant (replicate 2) it was 0.015; at PTH1R L436A mutant (replicate 3), 0.016. Further, the “ΔpEC50±SEM” value at PTH1R L436A mutant is recorded as 0.06±0.04. The “Span±SEM” value on PTH1R L436A mutant is reported as 220.70±25.60.
